# Experimental data: paper PMC11589570, “Critical assessment of LC3/GABARAP ligands used for degrader development and ligandability of LC3/GABARAP binding pockets” (Nature Communications, 2024)
# Several values for one entry are separate records, joined by “and”; a condition that tells them apart may be missing. Identical values can stand only once.
# Key:
# Assay type in all cases: binding
# [1] = molecular target: T1, KIF11 (Homo sapiens, UniProt P52732); experiment: Chemoproteomic competition pulldown assay (affinity matrix, LC-MS/MS) in HEK293T lysate; conditions: over 4000 proteins identified
# T1 construct: endogenous in cells; host or cells: HEK293 / HEK293T (ATCC; CRL-11268) lysate
# T1 sequence (P52732 1-1056): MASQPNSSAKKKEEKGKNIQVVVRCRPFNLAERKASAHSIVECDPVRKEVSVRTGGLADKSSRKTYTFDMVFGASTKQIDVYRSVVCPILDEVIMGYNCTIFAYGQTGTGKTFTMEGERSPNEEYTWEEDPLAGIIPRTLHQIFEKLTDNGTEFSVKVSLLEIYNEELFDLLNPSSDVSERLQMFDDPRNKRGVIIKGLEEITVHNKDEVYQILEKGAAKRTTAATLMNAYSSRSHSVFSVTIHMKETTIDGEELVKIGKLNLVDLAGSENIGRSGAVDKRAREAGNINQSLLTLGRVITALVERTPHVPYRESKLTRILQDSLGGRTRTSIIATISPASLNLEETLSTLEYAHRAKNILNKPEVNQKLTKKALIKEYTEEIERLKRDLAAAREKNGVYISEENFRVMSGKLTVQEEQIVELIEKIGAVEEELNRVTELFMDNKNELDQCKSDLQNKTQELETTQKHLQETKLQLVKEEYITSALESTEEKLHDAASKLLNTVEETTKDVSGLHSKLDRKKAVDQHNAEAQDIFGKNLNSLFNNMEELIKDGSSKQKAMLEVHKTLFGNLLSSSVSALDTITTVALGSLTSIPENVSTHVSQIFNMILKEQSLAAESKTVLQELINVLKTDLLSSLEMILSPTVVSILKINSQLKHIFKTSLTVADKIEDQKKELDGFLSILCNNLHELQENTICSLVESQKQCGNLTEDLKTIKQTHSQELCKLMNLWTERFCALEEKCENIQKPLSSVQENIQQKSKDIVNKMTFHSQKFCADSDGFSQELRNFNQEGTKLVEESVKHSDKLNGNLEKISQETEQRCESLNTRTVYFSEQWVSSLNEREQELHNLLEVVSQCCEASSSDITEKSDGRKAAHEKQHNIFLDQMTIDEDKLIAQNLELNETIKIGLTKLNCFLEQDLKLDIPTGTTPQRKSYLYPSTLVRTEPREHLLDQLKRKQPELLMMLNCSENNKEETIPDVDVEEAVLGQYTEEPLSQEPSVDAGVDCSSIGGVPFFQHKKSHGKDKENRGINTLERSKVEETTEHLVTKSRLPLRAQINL
# [2] = system: LC3/GABARAP; experiment: as above; conditions: HEK293T cell lysate
# Description: Preparation of Affinity Matrix 10O5 and 8F20: Compounds 18 and 19 (1 µM) were linked to DMSO-washed NHS-activated ( ~ […] beads) sepharose beads (1 mL) and triethylamine (20 µL) in DMSO (2 mL) on an end-over-end shaker overnight at RT in the dark. Aminoethanol (50 µL) was then added to inactivate the remaining NHS-activated carboxylic acid groups. […] Successful immobilization was controlled by LC-MS and Kaiser-test[46].
# Preparation of cell lysates for affinity pulldown assays: HEK293 cells (ATCC; CRL-11268) were cultured in DMEM (PAN Biotech). All media were supplemented with 10% FBS (PAN Biotech) and cells were internally tested for Mycoplasma contamination. […] The protein amount of cell lysates was determined by Bradford assay and adjusted to a concentration of 5 mg/mL[46]. […]
# LC-MSMS measurement of (competition) pulldown assays: Peptides were analyzed via LC-MS/MS on a Dionex Ultimate3000 nano HPLC coupled to an Orbitrap Fusion Lumos mass spectrometer, operated via the Thermo Scientific Xcalibur software. […]
# The mass spectrometer was operated in data dependent mode, automatically switching between MS1 and MS2 spectra. […] Up to 12 peptide precursors were isolated (isolation width of 1.2 Th, maximum injection time of 75 ms, AGC value of 2e5), fragmented by HCD using 25 % […] normalized collision energy (NCE) and analyzed in the Orbitrap at a resolution of 15,000. […]
# [3] = system: LC3/GABARAPs (human Atg8 family); experiment: FP assay with Cy5-labelled p62 LIR tracer, statements on all LC3/GABARAPs
# [4] = molecular target: T2, LC3A (Homo sapiens, UniProt Q9H492); experiment: Isothermal titration calorimetry (ITC); conditions: replicates 1-3, rebuttal letter
# Excerpt: To minimize nonspecific dilution heat effects, DMSO concentrations in the protein and compound samples were matched. […] For this protocol, the chamber was pre-equilibrated with the protein, and the test compounds were titrated while continuously measuring the rate of exothermic heat evolution. The heat of binding was integrated, corrected, and fitted to an independent single-binding site model based on the manufacturer’s instructions, from which thermodynamic parameters (ΔH and TΔS), equilibrium association and dissociation constants (KA and KD, respectively), and stoichiometry (n) were calculated using TA Instruments NanoAnalyze software.
# [5] = molecular target: T2, LC3A; experiment: Isothermal titration calorimetry (ITC); conditions: rounded, rebuttal letter; Novobiocin in reverse titration
additional targets in proteome-wide pulldown [1],interaction with LC3/GABARAP family members in FP displacement assay [3],"Enthalpy (ITC, repeated titration) ([4]; listed as LY223982)","Stoichiometry, n (ITC, repeated titration) ([4]; listed as LY223982)","Kd ([4]; read-out: KD (ITC, repeated titration))",enthalpies observed in ITC experiments [5],Compound,enrichment / pulldown of LC3/GABARAP by affinity matrix [2],"Entropy (ITC, repeated titration) ([4]; listed as LY223982)"
No additional targets were detected,,,,,,"Cc1ccc(C(=O)N(CCCNC(=O)CCOCCOCCOCCN)[C@@H](c2nc3cc(Cl)ccc3c(=O)n2Cc2ccccc2)C(C)C)cc1 [compound 19, (R)-N-(1-amino-12-oxo-3,6,9-trioxa-13-azahexadecan-16-yl)-N-(1-(3-benzyl-7-chloro-4-oxo-3,4-dihydroquinazolin-2-yl)−2-methylpropyl)−4-methylbenzamide]",did not enrich,
,selective binding to LC3 family members,"-11,64 kCal/mol and -9,814 kCal/mol","1,011 and 1,038 and 1,021",11.2 µM and 11.4 µM and 10 µM,-7 kcal/mol,COc1ccc(/C=C/CCCCOc2ccc(C(=O)c3cccc(C(=O)O)c3)cc2CCC(=O)O)cc1 [compound 20],,"-12,88 Cal/(mol*K) and -16,4 Cal/(mol*K) and -10,29 Cal/(mol*K)"
